Experiments:
[1] = target: T1, Human rhinovirus A protease (Human rhinovirus sp.) (UniProt Q4U254); assay: Binding affinity on human Rhinovirus 3C protease (rhinovirus serotype 14)
T1 sequence (whole entry): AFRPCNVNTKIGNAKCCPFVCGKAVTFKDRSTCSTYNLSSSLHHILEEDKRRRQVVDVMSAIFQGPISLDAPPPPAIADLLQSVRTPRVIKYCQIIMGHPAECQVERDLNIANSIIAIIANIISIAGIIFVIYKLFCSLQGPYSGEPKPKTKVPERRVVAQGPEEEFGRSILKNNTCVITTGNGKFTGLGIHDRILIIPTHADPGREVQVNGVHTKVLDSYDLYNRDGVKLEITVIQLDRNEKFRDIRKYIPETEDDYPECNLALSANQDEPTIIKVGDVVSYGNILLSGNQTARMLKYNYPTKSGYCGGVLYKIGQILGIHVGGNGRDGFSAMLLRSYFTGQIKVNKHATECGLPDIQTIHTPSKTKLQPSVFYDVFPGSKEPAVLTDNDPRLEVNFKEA

[2] = test system: rhinovirus B14; assay: Antiviral activity against HRV-14 in cell culture; type: functional, organism-based; conditions: Rhinovirus B
[3] = test system: rhinovirus B14; assay: Cytotoxic activity against HRV-14 in cell culture; type: functional, rhinovirus 14; conditions: Rhinovirus B
[4] = target: T1, Human rhinovirus A protease (Human rhinovirus sp.); assay: Binding affinity on human Rhinovirus 3C protease (rhinovirus serotype 2)
[5] = target: T1, Human rhinovirus A protease (Human rhinovirus sp.); assay: Binding affinity on human Rhinovirus 3C protease (rhinovirus serotype 16)

SMILES | K obs / 1 [1] [M⁻¹ s⁻¹] | EC50 [2] [µM] | CC50 [3] [µM] | K obs / 1 [4] [M⁻¹ s⁻¹] | K obs / 1 [5] [M⁻¹ s⁻¹]
CCOC(=O)/C=C/[C@H](CCC(N)=O)NC(=O)[C@H](Cc1ccccc1)NC(=O)[C@H](CC(C)C)NC(=O)SC1CCCC1 | 114000 | 0.18 | > 100 | – | –
CCOC(=O)/C=C/[C@H](CCC(N)=O)NC(=O)[C@H](Cc1ccccc1)NC(=O)CNC(=O)OCc1ccccc1 | 3800 | 5.6 | > 320 | – | –
CCOC(=O)/C=C/[C@H](CCC(N)=O)NC(=O)[C@H](Cc1ccc(C#N)cc1)NC(=O)[C@H](CC(C)C)NC(=O)OCc1ccccc1 | 10800 | 5.6 | > 320 | – | –
CCOC(=O)/C=C/[C@H](CNC(N)=O)NC(=O)[C@H](Cc1ccccc1)NC(=O)[C@H](CC(C)C)NC(=O)OCc1ccccc1 | 3500 | 32 | > 100 | – | –
CCOC(=O)/C=C/[C@H](CCC(N)=O)NC(=O)[C@H](Cc1ccccc1)NC(=O)[C@H](CC(C)C)NC(=O)CCO | 4500 | 19 | > 320 | – | –
CCOC(=O)/C=C/[C@H](CCC(N)=O)NC(=O)[C@H](Cc1ncc[nH]1)NC(=O)[C@H](CC(C)C)NC(=O)OCc1ccccc1 | 6800 | 27 | > 320 | – | –
CCOC(=O)/C=C/[C@H](CCC(N)=O)NC(=O)[C@H](Cc1ccccc1)NC(=O)[C@H](CSCc1ccccc1)NC(=O)OCc1ccccc1 | 97000 | 0.2 | > 100 | – | –
CCOC(=O)/C=C/[C@H](CCC(N)=O)NC(=O)[C@H](C)NC(=O)[C@H](CC(C)C)NC(=O)OCc1ccccc1 | 1300 | 20 | > 320 | – | –
CCOC(=O)/C=C/[C@H](CCC(N)=O)NC(=O)[C@H](Cc1ccccc1)NC(=O)[C@@H](NC(=O)OCc1ccccc1)C(C)(C)O | 98000 | 0.66 | > 100 | – | –
CCOC(=O)/C=C/[C@H](CCC(N)=O)NC(=O)[C@H](Cc1ccccc1)NC(=O)[C@H](CC(C)C)NC(=O)c1ccc2ccccc2c1 | 21000 | 1 | > 320 | – | –
CCOC(=O)/C=C/[C@H](CCC(N)=O)NC(=O)[C@H](Cc1ccc(C)cc1)NC(=O)[C@H](CC(C)C)NC(=O)OCc1ccccc1 | 59400 | 0.18 | > 320 | 1400 | 5300
CCC[C@H](NC(=O)[C@H](CC(C)C)NC(=O)OCc1ccccc1)C(=O)N[C@H](/C=C/C(=O)OCC)CCC(N)=O | 2300 | 5 | > 320 | 600 | 1200
CCOC(=O)/C=C/[C@H](CCC(N)=O)NC(=O)[C@H](Cc1ccc(OCC)cc1)NC(=O)[C@H](CC(C)C)NC(=O)OCc1ccccc1 | 4200 | > 320 | > 320 | – | –
CCOC(=O)/C=C/[C@H](CCC(N)=O)NC(=O)[C@H](Cc1ccccc1)NC(=O)[C@H](C)NC(=O)OCc1ccccc1 | 11300 | 2 | > 320 | – | –
CCOC(=O)/C=C/[C@H](CCC(N)=O)NC(=O)[C@H](Cc1ccccc1)NC(=O)[C@H](CC(C)C)NC(=O)OC | 9100 | 1.3 | > 320 | – | –
CCOC(=O)/C=C/[C@H](CCC(N)=O)NC(=O)[C@H](Cc1ccccc1)NC(=O)[C@@H](NC(=O)OCc1ccccc1)C(C)(C)CO | 40000 | 1.3 | > 100 | – | –
CCOC(=O)/C=C/[C@H](CCC(N)=O)NC(=O)[C@H](Cc1ccccc1)NC(=O)[C@H](CCc1ccccc1)NC(=O)OCc1ccccc1 | 57000 | 0.25 | > 320 | – | –
CCOC(=O)/C=C/[C@H](CCC(N)=O)NC(=O)[C@H](Cc1ccccc1)NC(=O)[C@H](CC(=O)O)NC(=O)OCc1ccccc1 | 35000 | 2.4 | > 320 | – | –

SMILES | K obs / 1 [1] [M⁻¹ s⁻¹] | EC50 [2] [µM] | CC50 [3] [µM] | K obs / 1 [4] [M⁻¹ s⁻¹] | K obs / 1 [5] [M⁻¹ s⁻¹]
CCOC(=O)/C=C/[C@H](CCC(N)=O)NC(=O)[C@H](Cc1ccc(COC)cc1)NC(=O)[C@H](CC(C)C)NC(=O)OCc1ccccc1 | 7100 | 39 | > 320 | – | –
CCOC(=O)/C=C/[C@H](CCC(N)=O)NC(=O)[C@H](Cc1ccccc1)NC(=O)[C@H](CC(C)C)NC(=O)[C@@H](NC(C)=O)C(C)C | 26700 | 63 | > 100 | – | –
CCOC(=O)/C=C/[C@H](CCC(C)O)NC(=O)[C@H](Cc1ccccc1)NC(=O)[C@H](CC(C)C)NC(=O)OCc1ccccc1 (some centres undefined) | 0 | > 100 | > 100 | – | –
CCOC(=O)/C=C/[C@H](CCC(N)=O)NC(=O)[C@H](Cc1ccccc1)NC(=O)[C@H](CC(C)C)NC(=O)OC1CCCCC1 | 15500 | 7.6 | > 100 | – | –
CCOC(=O)/C=C/[C@H](CCC(N)=O)NC(=O)[C@H](Cc1ccc(C(N)=O)cc1)NC(=O)[C@H](CC(C)C)NC(=O)OCc1ccccc1 | 9600 | > 177 | 177 | – | –
CCOC(=O)/C=C/[C@H](CCC(N)=O)NC(=O)[C@H](Cc1ccccc1)NC(=O)[C@H](CC(C)C)NC(=O)[C@@H](NC(C)=O)[C@@H](C)O | 4600 | > 100 | > 100 | – | –
CCOC(=O)/C=C/[C@H](CCC(N)=O)NC(=O)[C@H](Cc1ccccc1)NC(=O)[C@H](CC(C)C)NC(=O)c1ccc(Oc2ccccc2)cc1 | 8000 | 5.2 | > 320 | – | –
CCOC(=O)/C=C/[C@H](CCC(N)=O)NC(=O)[C@H](Cc1ccccc1)NC(=O)[C@H](CC(C)C)NC(C)=O | 3700 | 14 | > 320 | – | –
CCOC(=O)/C=C/[C@H](CCC(N)=O)NC(=O)[C@H](Cc1ccccc1)NC(=O)[C@H](Cc1ccccc1)NC(=O)OCc1ccccc1 | 162000 | 0.56 | > 320 | – | –
CCOC(=O)/C=C/[C@H](CCC(N)=O)NC(=O)[C@H](Cc1ccccc1)NC(=O)[C@H](CC(C)C)NC(=O)OC(C)(C)C | 700 | 4.5 | > 100 | – | –
CCOC(=O)/C=C/[C@H](COC(N)=O)NC(=O)[C@H](Cc1ccccc1)NC(=O)[C@H](CC(C)C)NC(=O)OCc1ccccc1 | 5600 | 1.6 | > 320 | – | –
CCOC(=O)/C=C/[C@H](CCC(N)=O)NC(=O)[C@H](Cc1ccccc1)NC(=O)[C@H](CC(C)C)NC(=O)CO | 2100 | 30 | > 320 | – | –
CCOC(=O)/C=C/[C@H](CCC(N)=O)NC(=O)[C@H](Cc1ccccc1)NC(=O)[C@@H](NC(=O)OCc1ccccc1)[C@H](C)SC(C)C | 40000 | 10 | > 100 | – | –
CCOC(=O)/C=C/[C@H](CCC(N)=O)NC(=O)[C@H](Cc1ccccc1)NC(=O)[C@H](CC(C)C)NC(=O)C1CCCC1 | 23700 | 0.6 | > 320 | – | –
CCOC(=O)/C=C/[C@H](CCC(N)=O)NC(=O)[C@H](Cc1ccccc1)NC(=O)[C@H](CC(C)C)NC(=O)OCc1ccncc1 | 12000 | 56 | > 320 | – | –
CCOC(=O)/C=C/[C@H](CCC(N)=O)NC(=O)[C@H](Cc1ccccc1)NC(=O)[C@H](CC1CCCCC1)NC(=O)OCc1ccccc1 | 39000 | 1.2 | > 320 | – | –
CCOC(=O)/C=C/[C@H](CCC(N)=O)NC(=O)[C@H](Cc1ccccc1)NC(=O)[C@H](CC(C)C)NC(=O)OCc1ccccc1Cl | 19000 | 0.63 | > 100 | – | –

From ChEMBL document CHEMBL1131037, “Structure-based design, synthesis, and biological evaluation of irreversible human rhinovirus 3C protease inhibitors. 2. Peptide structure-activity studies” (J Med Chem, 1998)
